Test system: ethanol-induced gastric mucosal injury
Assay: Prevention of 99.5% ethanol-induced gastric mucosal injury in rats
Format: in vivo
Conditions: for Mucosal injury suppression rate (%): 1 h before 99.5% ethanol 1 ml/animal, n = 10/group
Description: Rats were forced to abstain from food and water for 24 hours, and used as experimental subjects. […] When the two drugs were combined, the dose of the combination treatment was set such that the proportion of sucralfate was 1/3 of the dose, and the proportion of famotidine was 2/3 of the dose, or vice versa (i.e., the proportion of sucralfate was 2/3 of the dose, and the proportion of famotidine was 1/3 of the dose). For each of the individual treatments and the combination treatments, a high dose group, a medium dose group, and a low dose group were provided by setting a high dose, a medium dose, and a low dose at a ratio of 9:3:1. Each dose level of the drug was suspended in a 2% aqueous solution of acacia. The suspension was orally administered in a volume of 2 ml/kg body weight, while only the solvent was administered in the same volume for a control group. […] One hour after administration of the test drug, 99.5% ethanol in an amount of 1 ml/animal was administered orally. One hour later, the animal subjects were sacrificed and the stomach removed, treated, and measured for the extent of injuries occurring in the gastric mucosa. The total amount of injuries occurring In the respective animals was calculated to determine the ED50 values for the preventive effect of the test drug on gastric mucosal injury. […]

Row | Compound | 50% preventive dose ED50 (mg/kg) (drug administered alone, P.O., rats) | Mucosal injury suppression rate (%) (sucralfate alone 10 mg/kg P.O.) | Mucosal injury suppression rate (%) (sucralfate alone 30 mg/kg P.O.) | Mucosal injury suppression rate (%) (sucralfate alone 90 mg/kg P.O.) | ED50 (Rattus norvegicus, po, drug administered alone, P.O., rats, read-out: 50% preventive dose ED50) [mg/kg] | Mucosal injury suppression rate (%) (famotidine alone 10 mg/kg P.O.) | Mucosal injury suppression rate (%) (famotidine alone 30 mg/kg P.O.) | Mucosal injury suppression rate (%) (famotidine alone 90 mg/kg P.O.)
1 | sucralfate | Sucralfate 21.4 mg/kg | 19 | 69 | 92 | – | – | – | –
2 | NC(N)=Nc1nc(CSCCC(N)=NS(N)(=O)=O)cs1 [Famotidine, famotidine] | – | – | – | – | 46.3 | 13 | 42 | 66
